This note sets out measurements from ChEMBL document CHEMBL5346941, “Design, synthesis and evaluation of novel monoamine oxidase B (MAO-B) inhibitors with improved pharmacokinetic properties for Parkinson's disease” (Eur J Med Chem, 2023).

One series has as its target CYP3A4 (Homo sapiens, UniProt P08684). The series can be described thus: Inhibition of CYP3A4 in human liver microsomes using midazolam as substrate at 10 uM incubated for 5 mins in presence of NADPH by LC-MS/MS analysis relative to control. It counts as ADME, Microsome. As to conditions: probe midazolam.
Series [1] is described as follows: Volume of distribution at steady state in fasted Sprague-Dawley rat at 1 mg/kg, iv measured for 24 hrs. It counts as ADME, organism-based. To be noted: in vivo, read-out: Vdss.
Series [2] is described as follows: Drug concentration in Sprague-Dawley rat brain at 5 mg/kg, ip measured after 60 mins by LC-MS/MS analysis. The class given is ADME, organism-based. To be noted: read-out: Ct.
A further series has as its target T1, CYP2C8 (Homo sapiens, UniProt P10632).
T1 sequence (P10632 whole entry): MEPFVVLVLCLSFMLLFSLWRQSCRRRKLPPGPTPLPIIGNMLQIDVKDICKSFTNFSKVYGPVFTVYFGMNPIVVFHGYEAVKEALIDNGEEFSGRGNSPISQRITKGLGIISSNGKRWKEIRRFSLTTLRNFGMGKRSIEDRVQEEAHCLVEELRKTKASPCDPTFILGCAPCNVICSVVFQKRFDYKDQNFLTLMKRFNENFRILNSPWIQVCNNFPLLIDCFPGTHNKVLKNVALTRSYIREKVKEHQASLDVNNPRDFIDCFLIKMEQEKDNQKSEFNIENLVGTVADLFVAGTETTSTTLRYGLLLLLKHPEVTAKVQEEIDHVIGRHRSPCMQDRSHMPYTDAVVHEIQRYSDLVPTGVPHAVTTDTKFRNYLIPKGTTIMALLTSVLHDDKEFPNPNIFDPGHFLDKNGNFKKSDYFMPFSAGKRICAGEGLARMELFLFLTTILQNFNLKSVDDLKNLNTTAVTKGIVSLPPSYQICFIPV
The series can be described thus: Inhibition of CYP2C8 in human liver microsomes using amodiaquine as substrate at 10 uM incubated for 45 mins in presence of NADPH by LC-MS/MS analysis relative to control. It counts as ADME, Microsome. As to conditions: probe amodiaquine. For orientation: Microsomes from liver hold many membrane-bound enzymes, among them those of drug oxidation.

A short description of series [3]: AUC (0 to t) in fasted ICR mouse at 2 mg/kg, iv measured for 24 hrs. It counts as ADME, organism-based. Set-up: dose 2 mg/kg, time 24 hrs, route iv. To be noted: in vivo.
The test system of series [4] is Mus musculus. Description: Anti-parkinson activity in C57BL/6 mouse model of MPTP-induced dopamine deficits assessed as increase in dopamine concentration in striatum at 1 to 3 mg/kg, ip pretreated for 30 mins followed by MPTP addition and measured after 5 days by HPLC analysis. The class given is functional, organism-based. To be noted: dose 1-3 mg/kg, time 120.5 hrs.

Series [5] in a line: Apparent permeability across basolateral to apical side in MDCKII-MDR1 cells at 10 uM incubated for 30 mins by LC-MS/MS analysis. The class given is ADME, cell-based, Canis lupus familiaris. As to conditions: dog, MDCK-MDR1.
A short description of series [6]: AUC (0 to t) in fasted Sprague-Dawley rat at 1 mg/kg, iv measured for 24 hrs. The class given is ADME, organism-based. On the set-up: dose 1 mg/kg, time 24 hrs, route iv. As to conditions: in vivo.
For another series, the target named is T2, CYP2B6 (Homo sapiens, UniProt P20813).
T2 sequence (P20813 whole entry): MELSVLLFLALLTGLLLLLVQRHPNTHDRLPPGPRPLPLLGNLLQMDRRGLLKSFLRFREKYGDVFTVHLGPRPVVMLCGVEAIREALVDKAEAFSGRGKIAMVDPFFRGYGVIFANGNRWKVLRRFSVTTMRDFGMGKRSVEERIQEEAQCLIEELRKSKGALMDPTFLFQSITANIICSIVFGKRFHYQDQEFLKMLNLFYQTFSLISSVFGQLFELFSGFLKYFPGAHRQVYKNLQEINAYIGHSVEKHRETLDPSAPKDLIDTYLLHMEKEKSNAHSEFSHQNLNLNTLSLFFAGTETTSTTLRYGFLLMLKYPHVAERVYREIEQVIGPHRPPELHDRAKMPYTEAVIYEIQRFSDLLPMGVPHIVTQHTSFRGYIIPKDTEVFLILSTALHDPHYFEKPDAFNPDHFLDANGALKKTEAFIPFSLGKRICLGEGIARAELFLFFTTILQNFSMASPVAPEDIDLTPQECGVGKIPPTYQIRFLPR
The series can be described thus: Inhibition of CYP2B6 in human liver microsomes using bupropion as substrate at 10 uM incubated for 10 mins in presence of NADPH by LC-MS/MS analysis relative to control. The class given is ADME, Microsome. To be noted: probe bupropion.

Series [7] deals with Mus musculus. Description: In vivo inhibition of MAO-B in ICR mouse assessed as reduction in enzyme activity in brain administered once intraperitoneally for 30 to 60 mins by amplex red based assay. As to conditions: dose 0.08-1.28 mg/kg, route ip, time 30-60 min. It counts as functional, organism-based.
Series [8] is described as follows: Drug concentration in Sprague-Dawley rat plasma at 5 mg/kg, ip measured after 120 mins by LC-MS/MS analysis. The class given is ADME, organism-based.
Series [9] in a line: Metabolic stability in monkey liver microsomes assessed as intrinsic clearance at 1 uM incubated for 60 mins in presence of NADPH by LC-MS/MS analysis. The class given is ADME, Macaca mulatta, Microsome. As to conditions: rhesus monkey, read-out: CLH.
The nature of series [10]: Volume of distribution at steady state in fasted ICR mouse at 2 mg/kg, iv measured for 24 hrs. The class given is ADME, organism-based. To be noted: in vivo, read-out: Vdss.
Series [11] is described as follows: Clearance in fasted ICR mouse at 2 mg/kg, iv measured for 24 hrs. The class given is ADME, organism-based. As to conditions: in vivo.
A short description of series [12]: Ratio of drug concentration in Sprague-Dawley brain to plasma at 5 mg/kg, ip measured after 120 mins by LC-MS/MS analysis. It counts as ADME, organism-based. As to conditions: rat, read-out: BPR.
A short description of series [13]: Drug concentration in Sprague-Dawley rat plasma at 5 mg/kg, ip measured after 60 mins by LC-MS/MS analysis. It counts as ADME, organism-based.
Series [14] in a line: Protein binding in rat plasma at 1 uM incubated for 5 hrs by LC-MS/MS based rapid equilibrium dialysis method. The class given is ADME, cell-free. As to conditions: read-out: PPB (converted). Background: Equilibrium dialysis compares concentrations on both sides of a semipermeable membrane.
A short description of series [15]: Elimination half life in fasted Sprague-Dawley rat at 1 mg/kg, iv measured for 24 hrs. It counts as ADME, organism-based. To be noted: in vivo, read-out: beta t1/2 (converted).
Series [16] is described as follows: Elimination half life in fasted ICR mouse at 5 mg/kg, IG measured for 24 hrs. To be noted: in vivo, po, read-out: beta t1/2 (converted). The class given is ADME, organism-based.
Series [17] can be described thus: Protein binding in human plasma at 1 uM incubated for 5 hrs by LC-MS/MS based rapid equilibrium dialysis method. The class given is ADME, cell-free. To be noted: read-out: PPB (converted).

Activity calls are given as the source filed them. The rule behind the calls is not given here.

Chain of CYP3A4 (P08684 whole entry): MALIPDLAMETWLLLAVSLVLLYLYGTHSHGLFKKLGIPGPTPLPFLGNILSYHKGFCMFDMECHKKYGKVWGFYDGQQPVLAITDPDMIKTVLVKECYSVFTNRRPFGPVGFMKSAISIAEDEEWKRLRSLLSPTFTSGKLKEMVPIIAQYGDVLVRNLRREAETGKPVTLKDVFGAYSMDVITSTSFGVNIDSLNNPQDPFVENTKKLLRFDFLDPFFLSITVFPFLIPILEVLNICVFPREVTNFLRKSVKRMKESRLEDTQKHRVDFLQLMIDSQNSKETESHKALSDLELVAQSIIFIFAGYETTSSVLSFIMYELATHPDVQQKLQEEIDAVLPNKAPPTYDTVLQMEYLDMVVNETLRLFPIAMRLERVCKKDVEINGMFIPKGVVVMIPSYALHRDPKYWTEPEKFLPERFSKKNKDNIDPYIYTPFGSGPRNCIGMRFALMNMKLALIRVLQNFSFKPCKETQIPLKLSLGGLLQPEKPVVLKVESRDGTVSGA

For `NC(=O)[C@@H]1C[C@H](F)CN1Cc1ccc2oc(-c3ccc(F)cc3)cc2c1`, the inhibition – broadly, the change of the read-out against control, counted positive when it falls – at 5 min, 10 µM at CYP3A4 was -45.2%. The Vd stood at 3.33 L/kg in series [1] and 2.72 L/kg in series [10]. In addition, the concentration at 1 h in [2] worked out at 8750 ng/g; in series [13], 540 ng/mL. Besides, the inhibition at 0.75 h, 10 µM on CYP2C8 was determined as 5.74%. Further, the AUC(0-t) (as a rule, the area under the concentration-time curve up to a stated or last time point) at 24 h in [3] was determined as 2680 ng·h/mL; in series [6] it was 305 ng·h/mL. Also, the result in the series on Mus musculus [4] was Active. Besides, the apparent permeability from basolateral to apical (Papp B→A) (commonly the apparent permeability from the basolateral to the apical side of a cell layer) at 0.5 h, 10 µM in series [5] was found to be 2.97 ×10⁻⁶ cm/s. Further, the inhibition at 10 min, 10 µM at CYP2B6 was determined as 41.2%. The inhibition entry in the series on Mus musculus [7] was “Active”. This compound also gave a concentration at 2 h in [8] of 458 ng/mL. The CLint scaled at 1 µM in series [9] was 4.1 mL/min/kg. In addition, in series [11], the clearance (as a rule, the rate of elimination divided by the concentration) was 11 mL/min/kg. In addition, the Kp at 2 h in series [12] was 15.5. Further, the fraction unbound at 5 h, 1 µM in series [14] was 0.0062; in [17], 0.0058. Besides, the half-life in series [15] was 0.74 h; in [16], 3.8 h.
